Source: US12673954B2 (BRISTOL-MYERS SQUIBB COMPANY, priority 2021, dated 2026)
Like-named read-outs stand apart in the source and are kept apart here.

Legend:
[1] = tested on: IRF pathway, THP1-Dual™ cells; assay: STING reporter assay in THP1-Dual cells, IRF pathway (Lucia luciferase, QUANTI-Luc); type: cell-based, human; conditions: read-out: IRF (EC50 μM)
Excerpt: (§1) THP1-Dual™ cells were derived from the human THP-1 monocyte cell line by stable integration of two inducible reporter constructs. To this end, THP1-Dual™ cells allow the simultaneous study of the NF-κB pathway, by monitoring the activity of SEAP, and the IRF pathway by assessing the activity of a secreted luciferase (Lucia). Both reporter proteins are readily measurable in the cell culture supernatant when using QUANTI-Blue™, a SEAP detection reagent, and QUANTI-Luc™, a luciferase detection reagent.
(§2) THP1-Dual™ cells induce the activation of NF-κB in response to STING agonists. They also trigger the IRF pathway upon stimulation with STING agonists, such as cGAMP. Here, the THP-1-Dual cells were used to assess STING specific binders for function on the cellular level.
(§3) Serial dilutions of compounds in DMSO were added to low volume 384 well plates at 100 nl/well using an ECHO acoustic dispenser (Labcyte, model 550) to achieve final starting concentration of 100 μM in cell suspension. […] One column of the plate was reserved for treatment with cGAMP at 100 μM for 100% activation calculation and one column for no treatment (DMSO only) for baseline activation. Plates were then incubated in 37° C. incubator at 5% CO2 for 20 hours.
(§4) Plates were read on the Envision (Perkin Elmer) at 620 nm wavelength (OD620). In the luciferase assay, 5 μl of Quantiluc (Invivogen, Rep-qlc2) is added to white 384 well plates seeded with THP1 cells and read at 5 minutes on the Envision (Perkin Elmer) using a luminescence protocol (RLU). 100% activation was determined by value (RLU) of THP-1 Dual STING cells stimulated with 100 μM cGAMP (Invivogen, cat #TLRL-NACGA23-5).

[2] = tested on: NF-κB pathway, THP1-Dual™ cells; assay: STING reporter assay in THP1-Dual cells, NF-κB pathway (SEAP, QUANTI-Blue); type: cell-based, human; conditions: read-out: NFkB (EC50 μM)
Excerpt: as §1, §2, §3, §4

[3] = THP1-Dual cells, 10% human plasma, 20 hours, Lucia luciferase, 100% activation = 100 μM cGAMP
[4] = THP1-Dual cells, 10% human plasma, 20 hours, SEAP, 100% activation = 100 μM cGAMP
[5] = Homo sapiens, THP1-Dual, 20 h, THP1-Dual cells, 10% human plasma, 20 hours, Lucia luciferase, 100% activation = 100 μM cGAMP
[6] = Homo sapiens, THP1-Dual, 20 h, THP1-Dual cells, 10% human plasma, 20 hours, SEAP, 100% activation = 100 μM cGAMP

| EC50 [1, 5] | EC50 [2, 6] | Structure (SMILES) | also measured |
| --- | --- | --- | --- |
|  |  | CC(NC(=O)c1cnn2cccnc12)c1cc2cc(F)cc(C(=O)O[C@H](C)C(F)(F)F)c2o1 (stereo partly drawn) [EXAMPLE 326, (R)-1,1,1-Trifluoropropan-2-yl 5-fluoro-2-(1-(pyrazolo[1,5-a]pyrimidine-3-carboxamido)ethyl)benzofuran-7-carboxylate] | EC50 [1, 3]: 74 µM; EC50 [2, 4]: > 100 µM |
| 30 µM | 61 µM | O=C(NO)c1cc(Cl)cc2cc(CNC(=O)c3cnn4cccnc34)oc12 [EXAMPLE 405, N-((5-Chloro-7-(hydroxycarbamoyl)benzofuran-2-yl)methyl)pyrazolo[1,5-a]pyrimidine-3-carboxamide] |  |
|  |  | C[Si](C)(C)CCSC(=O)c1cc(F)cc2c(Cl)c(CNC(=O)c3cnn4cccnc34)oc12 [EXAMPLE 392, S-(2-(Trimethylsilyl)ethyl) 3-chloro-5-fluoro-2-((pyrazolo[1,5-a]pyrimidine-3-carboxamido)methyl)benzofuran-7-carbothioate] | EC50 ([1]; Homo sapiens, THP1-Dual, 20 h): 3.4 µM; EC50 ([2]; Homo sapiens, THP1-Dual, 20 h): 2.7 µM |
| 0.76 µM | 0.71 µM | Cc1cc(C(=O)O[C@H](C)C(F)(F)F)c2oc(CNC(=O)c3cnn4cccnc34)c(Cl)c2c1 [EXAMPLE 300, (R)-1,1,1-Trifluoropropan-2-yl 3-chloro-5-methyl-2-((pyrazolo[1,5-a]pyrimidine-3-carboxamido)methyl)benzofuran-7-carboxylate] |  |
| 13 µM | 16 µM | CCOc1ncncc1C(=O)NCc1cc2cc(C)cc(C(=O)OC)c2o1 [Example 95, Methyl 2-((4-ethoxypyrimidine-5-carboxamido)methyl)-5-methylbenzofuran-7-carboxylate] |  |
| 0.91 µM | 1.1 µM | O=C(OCC(F)(F)F)c1cc(Cl)cc2cc(CNC(=O)c3cnc4cccnn34)oc12 [EXAMPLE 369, 2,2,2-Trifluoroethyl 5-chloro-2-((imidazo[1,2-b]pyridazine-3-carboxamido)methyl)benzofuran-7-carboxylate] |  |
| 0.97 µM | 0.89 µM | COC(=O)c1cc(Cl)cc2c(Cl)c([C@H](C)NC(=O)c3cnn4cccnc34)oc12 [EXAMPLE 114, Methyl (S)-3,5-dichloro-2-(1-(pyrazolo[1,5-a]pyrimidine-3-carboxamido)ethyl)benzofuran-7-carboxylate] |  |
| 0.96 µM | 1.3 µM | O=C(OCC(F)(F)F)c1ccc(F)c2cc(CNC(=O)c3cnn4cccnc34)oc12 [EXAMPLE 355, 2,2,2-Trifluoroethyl 4-fluoro-2-((pyrazolo[1,5-a]pyrimidine-3-carboxamido)methyl)benzofuran-7-carboxylate] |  |
|  |  | CC(OC(=O)c1cc(C(F)(F)F)cc2cc(CNC(=O)c3cnn4cccnc34)oc12)C(F)(F)F (single isomer, unassigned) [EXAMPLE 350, 1,1,1-Trifluoropropan-2-yl 2-((pyrazolo[1,5-a]pyrimidine-3-carboxamido)methyl)-5-(trifluoromethyl)benzofuran-7-carboxylate] | EC50 [1, 3]: 17 µM; EC50 [2, 4]: 54 µM |
| 11 µM | 10 µM | COC(=O)Cc1cc(C)cc2cc(CNC(=O)c3cnn4cccnc34)oc12 [Example 98, Methyl 2-(5-methyl-2-((pyrazolo[1,5-a]pyrimidine-3-carboxamido)methyl)benzofuran-7-yl)acetate] |  |
| 0.32 µM | 0.51 µM | COC(=O)c1cc(Cl)cc2c(Cl)c(CNC(=O)c3cncc4cccnc34)oc12 [EXAMPLE 113, methyl 2-((1,6-naphthyridine-8-carboxamido)methyl)-3,5-dichlorobenzofuran-7-carboxylate] |  |
| 2.1 µM | 2.6 µM | COC(=O)c1cc(Cl)cc2cc(CNC(=O)c3cncnc3OC)oc12 [Example 73, Methyl 5-chloro-2-((4-methoxypyrimidine-5-carboxamido)methyl)benzofuran-7-carboxylate] |  |
| 2.5 µM | 3 µM | COC(=O)c1cc(OC)cc2cc(CNC(=O)c3cnn4cccnc34)oc12 [EXAMPLE 102, Methyl 5-methoxy-2-((pyrazolo[1,5-a]pyrimidine-3-carboxamido)methyl)benzofuran-7-carboxylate] |  |
|  |  | CC(OC(=O)c1ccc(F)c2cc(CNC(=O)c3cnn4cccnc34)oc12)C(F)(F)F (single isomer, unassigned) [EXAMPLE 309, 1,1,1-Trifluoropropan-2-yl 4-fluoro-2-((pyrazolo[1,5-a]pyrimidine-3-carboxamido)methyl)benzofuran-7-carboxylate] | EC50 [1, 3]: 6.1 µM; EC50 [2, 4]: 7.2 µM |
| 10 µM | 15 µM | COC(=O)c1ccc(F)c2cc(Cn3cnc4ccncc4c3=O)oc12 [EXAMPLE 25] |  |
| 79 µM | > 100 µM | COC(=O)c1ccc(O)c2cc(CNC(=O)c3cnn4cccnc34)oc12 [EXAMPLE 34, Methyl 4-hydroxy-2-((pyrazolo[1,5-a]pyrimidine-3-carboxamido)methyl)benzofuran-7-carboxylate] |  |
|  |  | C[C@H](NC(=O)c1cnn2cccnc12)c1cc2cc(F)cc(C(=O)SCC[Si](C)(C)C)c2o1 [EXAMPLE 398, S-(2-(Trimethylsilyl)ethyl) (S)-5-fluoro-2-(1-(pyrazolo[1,5-a]pyrimidine-3-carboxamido)ethyl)benzofuran-7-carbothioate] | EC50 ([1]; Homo sapiens, THP1-Dual, 20 h): 9.4 µM; EC50 ([2]; Homo sapiens, THP1-Dual, 20 h): 5.7 µM |
|  |  | C[Si](C)(C)CCSC(=O)c1cc(Cl)cc2cc(CNC(=O)c3cnn4cccnc34)oc12 [EXAMPLE 394] | EC50 ([1]; Homo sapiens, THP1-Dual, 20 h): > 100 µM; EC50 ([2]; Homo sapiens, THP1-Dual, 20 h): 11 µM |
| 5.5 µM | 4.4 µM | CC(OC(=O)c1cccc2cc(CNC(=O)c3cnn4cccnc34)oc12)C(F)(F)F (centres unmarked) [EXAMPLE 218, 1,1,1-Trifluoropropan-2-yl 2-((pyrazolo[1,5-a]pyrimidine-3-carboxamido)methyl)benzofuran-7-carboxylate] |  |
| 0.6 µM | 0.82 µM | COC(=O)c1cc(Cl)cc2c(C)c(CNC(=O)c3cnn4cccnc34)oc12 [EXAMPLE 115, Methyl 5-chloro-3-methyl-2-((pyrazolo[1,5-a]pyrimidine-3-carboxamido)methyl)benzofuran-7-carboxylate] |  |
| 0.93 µM | 1.1 µM | COC(=O)c1cc(Cl)cc2cc(CNC(=O)c3cncc4cccnc34)oc12 [Example 50, Methyl 2-((1,6-naphthyridine-8-carboxamido)methyl)-5-chlorobenzofuran-7-carboxylate] |  |
|  |  | CC(OC(=O)c1cc(Cl)cc2cc(CNC(=O)c3cnn4cccnc34)oc12)C(F)(F)F (single isomer, unassigned) [EXAMPLE 329, 1,1,1-Trifluoropropan-2-yl 5-chloro-2-((pyrazolo[1,5-a]pyrimidine-3-carboxamido)methyl)benzofuran-7-carboxylate] | EC50 [1, 3]: 0.88 µM; EC50 [2, 4]: 0.89 µM |
| 27 µM | 31 µM | COC(=O)c1ccc(C)c2cc(CN3Cc4ccncc4C3=O)oc12 [EXAMPLE 30, Methyl 4-methyl-2-((3-oxo-1,3-dihydro-2H-pyrrolo[3,4-c]pyridin-2-yl)methyl)benzofuran-7-carboxylate] |  |
| > 100 µM | 83 µM | Cc1cc(C(N)=O)c2oc(CNC(=O)c3cnn4cccnc34)cc2c1 [EXAMPLE 404, N-((7-Carbamoyl-5-methylbenzofuran-2-yl)methyl)pyrazolo[1,5-a]pyrimidine-3-carboxamide] |  |
|  |  | COC(=O)c1cc(Cl)cc2cc(CNC(=O)c3cnn4cc(C)cnc34)oc12 [Example 55, Methyl 5-chloro-2-((6-methylpyrazolo[1,5-a]pyrimidine-3-carboxamido)methyl) benzofuran-7-carboxylate] | EC50 [1, 3]: 1.1 µM; EC50 [2, 4]: 1.1 µM |
| 3.8 µM | 6 µM | COC(=O)c1cccc2cc(CNC(=O)c3cncc4cccnc34)oc12 [EXAMPLE 14, Methyl 2-((1,6-naphthyridine-8-carboxamido)methyl)benzofuran-7-carboxylate] |  |
| 0.94 µM | 0.72 µM | Cc1cc(C(=O)OC2CC(F)(F)C2)c2oc(CNC(=O)c3cnn4cccnc34)cc2c1 [EXAMPLE 275, 3,3-Difluorocyclobutyl 5-methyl-2-((pyrazolo[1,5-a]pyrimidine-3-carboxamido)methyl)-benzofuran-7-carboxylate] |  |
| 1.6 µM | 1.9 µM | O=C(OC1CCCC1)c1cc(Cl)cc2cc(CNC(=O)c3cnn4cccnc34)oc12 [EXAMPLE 243, Cyclopentyl 5-chloro-2-((pyrazolo[1,5-a]pyrimidine-3-carboxamido)methyl)benzofuran-7-carboxylate] |  |
